Ten molecules from ChEMBL document CHEMBL1201862, “PubChem BioAssay data set” (2004) can be followed below.

Test [1] concerns the target T1, Fatty acid synthase (Homo sapiens, UniProt P49327). Put plainly: inhibition of human FAS-TE enzyme activity – biochemical, kinetic fluorescence intensity, dose response (AID 624326).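 Further: rate of fluorescence rise from hydrolysis of a fluorogenic O-methyl fluorescein ester substrate.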 It counts as functional.
The nature of test [2]: viability of uninfected HEp-2 cells – cell-based, HTS, cytotoxicity control for RSV inhibitor project, dose response (AID 2410). It counts as functional. The settings on record: human respiratory syncytial virus.
The target of test [3] is T1, Fatty acid synthase. Description: inhibition of human FAS-TE enzyme activity – biochemical, endpoint fluorescence intensity, uHTS hits, dose response (AID 624327).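 Further: fluorescence from hydrolysis of an O-methyl fluorescein acyl ester substrate by the enzyme.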 It is filed as functional.
The target in the next test is Paired box protein Pax-8 (Homo sapiens, UniProt Q06710). Put plainly: PAX8 transcriptional activity inhibition in RMG-I – RMG-I cells, luciferase, cherry-pick, dose response (AID 687027).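 Further: luciferase reporter driven by Pax8 target thyroperoxidase promoter measured by SteadyGlo luminescence.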 It is filed as functional, cell-based.
Chain of Paired box protein Pax-8 (Q06710 whole entry): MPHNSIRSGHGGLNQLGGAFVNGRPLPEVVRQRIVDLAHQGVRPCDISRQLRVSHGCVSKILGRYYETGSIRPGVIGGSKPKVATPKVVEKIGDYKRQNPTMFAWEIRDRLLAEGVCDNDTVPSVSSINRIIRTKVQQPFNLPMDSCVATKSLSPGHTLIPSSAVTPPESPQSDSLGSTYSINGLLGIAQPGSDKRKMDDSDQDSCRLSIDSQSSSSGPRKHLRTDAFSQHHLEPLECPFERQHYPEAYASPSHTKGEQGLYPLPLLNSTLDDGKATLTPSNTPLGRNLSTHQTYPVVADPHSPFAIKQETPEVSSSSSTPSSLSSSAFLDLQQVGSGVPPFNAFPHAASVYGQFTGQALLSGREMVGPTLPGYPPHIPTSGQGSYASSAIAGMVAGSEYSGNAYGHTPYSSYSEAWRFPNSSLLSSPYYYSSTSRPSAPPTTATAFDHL
For test [4], the target named is Heat shock protein HSP 90-alpha (Homo sapiens, UniProt P07900). It counts as functional, organism-based.
Test [5] deals with T2, Histone-lysine N-methyltransferase NSD2 (Homo sapiens, UniProt O96028).
T2 sequence (O96028 whole entry): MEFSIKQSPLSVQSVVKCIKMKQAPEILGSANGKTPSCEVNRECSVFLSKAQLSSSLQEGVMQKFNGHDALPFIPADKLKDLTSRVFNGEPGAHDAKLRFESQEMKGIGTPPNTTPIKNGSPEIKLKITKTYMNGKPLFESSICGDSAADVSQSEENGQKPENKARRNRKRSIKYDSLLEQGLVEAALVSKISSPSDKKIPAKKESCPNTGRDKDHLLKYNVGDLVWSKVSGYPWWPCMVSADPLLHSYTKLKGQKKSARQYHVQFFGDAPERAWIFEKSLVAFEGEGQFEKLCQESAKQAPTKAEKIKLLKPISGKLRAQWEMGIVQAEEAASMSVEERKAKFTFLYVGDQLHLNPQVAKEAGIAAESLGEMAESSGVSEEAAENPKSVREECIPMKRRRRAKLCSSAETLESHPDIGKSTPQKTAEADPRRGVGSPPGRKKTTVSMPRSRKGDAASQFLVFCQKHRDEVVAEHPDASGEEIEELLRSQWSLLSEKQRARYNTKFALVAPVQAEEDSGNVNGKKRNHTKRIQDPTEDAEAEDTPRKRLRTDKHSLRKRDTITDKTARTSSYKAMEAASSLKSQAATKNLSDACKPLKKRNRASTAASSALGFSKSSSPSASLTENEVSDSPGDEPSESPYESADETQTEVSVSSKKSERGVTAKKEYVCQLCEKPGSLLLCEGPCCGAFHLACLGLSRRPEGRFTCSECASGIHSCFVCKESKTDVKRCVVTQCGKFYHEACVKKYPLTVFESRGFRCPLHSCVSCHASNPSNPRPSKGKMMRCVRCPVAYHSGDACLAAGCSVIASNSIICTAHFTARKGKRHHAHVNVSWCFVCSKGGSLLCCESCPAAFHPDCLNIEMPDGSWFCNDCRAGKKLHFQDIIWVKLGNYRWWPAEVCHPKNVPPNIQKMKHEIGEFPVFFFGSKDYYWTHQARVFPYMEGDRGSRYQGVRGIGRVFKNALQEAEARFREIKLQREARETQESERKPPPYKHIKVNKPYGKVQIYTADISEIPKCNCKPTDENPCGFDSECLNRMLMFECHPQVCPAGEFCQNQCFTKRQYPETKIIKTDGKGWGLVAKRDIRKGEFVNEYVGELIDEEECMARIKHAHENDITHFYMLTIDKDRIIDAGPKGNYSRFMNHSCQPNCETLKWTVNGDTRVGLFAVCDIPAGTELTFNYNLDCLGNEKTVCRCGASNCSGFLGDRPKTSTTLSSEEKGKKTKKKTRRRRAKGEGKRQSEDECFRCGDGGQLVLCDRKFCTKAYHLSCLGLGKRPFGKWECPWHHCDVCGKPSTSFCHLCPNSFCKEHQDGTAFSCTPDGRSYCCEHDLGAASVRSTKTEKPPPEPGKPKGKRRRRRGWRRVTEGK
It is filed as biochemical.

Test [6] concerns the target Dual specificity tyrosine-phosphorylation-regulated kinase 1A (Rattus norvegicus, UniProt Q63470). It counts as biochemical, Homo sapiens.
Test [7] has as its target T3, Tyrosyl-DNA phosphodiesterase 2 (Homo sapiens, UniProt O95551).
T3 sequence (O95551 whole entry): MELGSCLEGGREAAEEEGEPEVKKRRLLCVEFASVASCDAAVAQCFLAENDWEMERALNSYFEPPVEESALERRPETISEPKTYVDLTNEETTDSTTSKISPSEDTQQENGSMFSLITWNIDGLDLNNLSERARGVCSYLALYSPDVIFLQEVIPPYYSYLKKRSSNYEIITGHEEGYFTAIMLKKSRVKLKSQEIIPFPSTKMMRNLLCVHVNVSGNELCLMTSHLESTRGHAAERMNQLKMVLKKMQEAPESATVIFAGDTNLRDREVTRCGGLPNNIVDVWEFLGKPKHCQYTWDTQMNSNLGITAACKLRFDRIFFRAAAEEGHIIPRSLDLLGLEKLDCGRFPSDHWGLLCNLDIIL
Description: potency against TDP2 phosphodiesterase activity – biochemical, epi absorbance, IC50, dose response (AID 743297).

Test [8] is described as follows: toxicity toward HepG2 liver cells – cell-based, plate reader, cherry-pick, antagonist series, cytotoxicity control, dose response (AID 743416). It counts as functional.
Test [9] in a line: blockade of melanocortin 4 receptor signaling – cell-based, plate reader, cherry pick, counter-screen for LGR2 antagonist project, dose response (AID 743444).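 Further: transfected HEK 293 cells stimulated with alpha-MSH peptide; potency of inhibitors of the alpha-MSH evoked signal.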 It is filed as functional. On the technique in general: A counterscreen serves to expose hits that act by an unwanted route or on another target.
A short description of test [10]: blockers of bursicon-stimulated LGR2 cAMP reporter – cell-based, HEK293, CRE-luciferase reporter, cherry pick, set 2, dose response (AID 743343).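 Further: transfected cells were stimulated with diluted bursicon conditioned medium after compound addition.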 It is filed as functional.
Test [11] in a line: viability loss in HEK293 cells – cell-based, plate reader, cherry-picked samples, cytotoxicity control, dose response (AID 743446). It is filed as functional.
Test [12] deals with T4, Orexin/Hypocretin receptor type 1 (Homo sapiens, UniProt O43613).
T4 sequence (O43613 whole entry): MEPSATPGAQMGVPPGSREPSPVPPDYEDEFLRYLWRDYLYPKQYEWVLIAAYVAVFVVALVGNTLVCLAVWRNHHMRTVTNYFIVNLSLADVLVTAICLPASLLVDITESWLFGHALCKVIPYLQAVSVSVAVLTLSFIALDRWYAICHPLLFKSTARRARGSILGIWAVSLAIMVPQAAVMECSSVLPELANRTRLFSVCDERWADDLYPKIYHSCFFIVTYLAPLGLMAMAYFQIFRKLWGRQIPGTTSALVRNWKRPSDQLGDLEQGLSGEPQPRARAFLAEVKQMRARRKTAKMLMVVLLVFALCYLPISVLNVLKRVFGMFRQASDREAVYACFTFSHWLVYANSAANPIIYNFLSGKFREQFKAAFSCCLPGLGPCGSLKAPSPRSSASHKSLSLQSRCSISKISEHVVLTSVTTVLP
Description: Homogeneous Time Resolved Fluorescence (HTRF)-based cell-based high throughput dose response assay for antagonists of the orexin 1 receptor (OX1R; HCRTR1). [Related pubchem assays (depositor defined):AID434989, AID435008, AID463079, AID485270, AID492963, AID492964, AID492965, AID493232, AID504717, AID504718]. It is filed as functional.

In test [13] the target is T4, Orexin/Hypocretin receptor type 1. Put plainly: Fluorescence-based cell-based high throughput dose response assay for antagonists of the orexin 1 receptor (OX1R; HCRTR1). [Related pubchem assays (depositor defined):AID434989, AID435008, AID463079, AID485270, AID492963, AID492964, AID492965, AID493232, AID504717, AID504718]. It is filed as functional.
Test [14] addresses T5, Orexin receptor type 2 (Homo sapiens, UniProt O43614).
T5 sequence (O43614 whole entry): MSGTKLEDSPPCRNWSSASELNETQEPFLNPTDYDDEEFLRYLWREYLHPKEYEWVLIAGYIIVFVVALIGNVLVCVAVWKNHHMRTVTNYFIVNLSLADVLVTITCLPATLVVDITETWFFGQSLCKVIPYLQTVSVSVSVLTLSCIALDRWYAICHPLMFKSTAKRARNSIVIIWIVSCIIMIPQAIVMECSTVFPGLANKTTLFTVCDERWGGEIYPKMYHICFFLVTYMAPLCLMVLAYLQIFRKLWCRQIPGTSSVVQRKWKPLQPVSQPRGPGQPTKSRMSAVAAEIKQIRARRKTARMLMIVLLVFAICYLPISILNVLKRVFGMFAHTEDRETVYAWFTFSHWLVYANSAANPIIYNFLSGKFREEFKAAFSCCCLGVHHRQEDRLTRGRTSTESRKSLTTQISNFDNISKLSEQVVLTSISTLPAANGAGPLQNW
Description: Counterscreen assay for antagonists of the orexin 1 receptor (OX1R; HCRTR1): Homogeneous Time Resolved Fluorescence (HTRF)-based cell-based dose response assay for antagonists of the orexin 2 receptor (OX2R; HCRTR2), run by assay provider. It is filed as functional.

The nature of test [15]: Counterscreen for antagonists of the orexin 1 receptor (OX1R; HCRTR1): Fluorescence-based cell-based high throughput dose response assay to identify antagonists of the parental CHO cell line. [Related pubchem assays (depositor defined):AID434989, AID435008, AID463079, AID485270, AID492963, AID492964, AID492965, AID493232, AID504699, AID504701]. It counts as functional.
The target in test [16] is T5, Orexin receptor type 2. Put plainly: Counterscreen assay for antagonists of the orexin 1 receptor (OX1R; HCRTR1): Fluorescence-based cell-based dose response assay for antagonists of the orexin 2 receptor (OX2R; HCRTR2), run by assay provider. It is filed as functional.
A further test concerns CHO-K1. Description: Counterscreen for antagonists of the orexin 1 receptor (OX1R; HCRTR1): Homogeneous time resolved fluorescence (HTRF)-based cell-based dose response assay to identify antagonists of the parental CHO-K1 cell line. [Related pubchem assays (depositor defined):AID434989, AID435008, AID463079, AID485270, AID492963, AID492964, AID492965, AID493232, AID504699, AID504701]. It is filed as functional. The conditions noted are these: Cricetulus griseus.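 Further: potency for inhibition of ATP-stimulated IP1 production as antagonists.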

In a further test the target is Kallikrein-7 (Homo sapiens, UniProt P49862). Put plainly: Fluorescence Intensity-based biochemical primary high throughput dose response assay to identify activators of kallikrein-7 (K7) zymogen.
Chain of Kallikrein-7 (P49862 whole entry): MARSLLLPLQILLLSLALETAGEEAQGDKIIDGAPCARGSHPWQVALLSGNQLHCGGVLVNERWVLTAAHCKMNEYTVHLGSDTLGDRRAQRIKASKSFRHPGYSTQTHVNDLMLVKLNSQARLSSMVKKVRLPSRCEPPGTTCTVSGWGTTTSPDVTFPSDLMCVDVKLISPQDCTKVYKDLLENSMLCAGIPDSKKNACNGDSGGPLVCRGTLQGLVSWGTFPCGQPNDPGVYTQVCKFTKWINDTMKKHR

What is called IC50 is the concentration at which inhibition is half-maximal. Usually CC50 stands for the concentration giving 50% cytotoxicity. Usually AC50 stands for the concentration at which the activity in the assay is half-maximal. As usually defined, the EC50 is the concentration at which the effect is half-maximal.

Active and inactive are the calls of the source.

T1 sequence (P49327 whole entry): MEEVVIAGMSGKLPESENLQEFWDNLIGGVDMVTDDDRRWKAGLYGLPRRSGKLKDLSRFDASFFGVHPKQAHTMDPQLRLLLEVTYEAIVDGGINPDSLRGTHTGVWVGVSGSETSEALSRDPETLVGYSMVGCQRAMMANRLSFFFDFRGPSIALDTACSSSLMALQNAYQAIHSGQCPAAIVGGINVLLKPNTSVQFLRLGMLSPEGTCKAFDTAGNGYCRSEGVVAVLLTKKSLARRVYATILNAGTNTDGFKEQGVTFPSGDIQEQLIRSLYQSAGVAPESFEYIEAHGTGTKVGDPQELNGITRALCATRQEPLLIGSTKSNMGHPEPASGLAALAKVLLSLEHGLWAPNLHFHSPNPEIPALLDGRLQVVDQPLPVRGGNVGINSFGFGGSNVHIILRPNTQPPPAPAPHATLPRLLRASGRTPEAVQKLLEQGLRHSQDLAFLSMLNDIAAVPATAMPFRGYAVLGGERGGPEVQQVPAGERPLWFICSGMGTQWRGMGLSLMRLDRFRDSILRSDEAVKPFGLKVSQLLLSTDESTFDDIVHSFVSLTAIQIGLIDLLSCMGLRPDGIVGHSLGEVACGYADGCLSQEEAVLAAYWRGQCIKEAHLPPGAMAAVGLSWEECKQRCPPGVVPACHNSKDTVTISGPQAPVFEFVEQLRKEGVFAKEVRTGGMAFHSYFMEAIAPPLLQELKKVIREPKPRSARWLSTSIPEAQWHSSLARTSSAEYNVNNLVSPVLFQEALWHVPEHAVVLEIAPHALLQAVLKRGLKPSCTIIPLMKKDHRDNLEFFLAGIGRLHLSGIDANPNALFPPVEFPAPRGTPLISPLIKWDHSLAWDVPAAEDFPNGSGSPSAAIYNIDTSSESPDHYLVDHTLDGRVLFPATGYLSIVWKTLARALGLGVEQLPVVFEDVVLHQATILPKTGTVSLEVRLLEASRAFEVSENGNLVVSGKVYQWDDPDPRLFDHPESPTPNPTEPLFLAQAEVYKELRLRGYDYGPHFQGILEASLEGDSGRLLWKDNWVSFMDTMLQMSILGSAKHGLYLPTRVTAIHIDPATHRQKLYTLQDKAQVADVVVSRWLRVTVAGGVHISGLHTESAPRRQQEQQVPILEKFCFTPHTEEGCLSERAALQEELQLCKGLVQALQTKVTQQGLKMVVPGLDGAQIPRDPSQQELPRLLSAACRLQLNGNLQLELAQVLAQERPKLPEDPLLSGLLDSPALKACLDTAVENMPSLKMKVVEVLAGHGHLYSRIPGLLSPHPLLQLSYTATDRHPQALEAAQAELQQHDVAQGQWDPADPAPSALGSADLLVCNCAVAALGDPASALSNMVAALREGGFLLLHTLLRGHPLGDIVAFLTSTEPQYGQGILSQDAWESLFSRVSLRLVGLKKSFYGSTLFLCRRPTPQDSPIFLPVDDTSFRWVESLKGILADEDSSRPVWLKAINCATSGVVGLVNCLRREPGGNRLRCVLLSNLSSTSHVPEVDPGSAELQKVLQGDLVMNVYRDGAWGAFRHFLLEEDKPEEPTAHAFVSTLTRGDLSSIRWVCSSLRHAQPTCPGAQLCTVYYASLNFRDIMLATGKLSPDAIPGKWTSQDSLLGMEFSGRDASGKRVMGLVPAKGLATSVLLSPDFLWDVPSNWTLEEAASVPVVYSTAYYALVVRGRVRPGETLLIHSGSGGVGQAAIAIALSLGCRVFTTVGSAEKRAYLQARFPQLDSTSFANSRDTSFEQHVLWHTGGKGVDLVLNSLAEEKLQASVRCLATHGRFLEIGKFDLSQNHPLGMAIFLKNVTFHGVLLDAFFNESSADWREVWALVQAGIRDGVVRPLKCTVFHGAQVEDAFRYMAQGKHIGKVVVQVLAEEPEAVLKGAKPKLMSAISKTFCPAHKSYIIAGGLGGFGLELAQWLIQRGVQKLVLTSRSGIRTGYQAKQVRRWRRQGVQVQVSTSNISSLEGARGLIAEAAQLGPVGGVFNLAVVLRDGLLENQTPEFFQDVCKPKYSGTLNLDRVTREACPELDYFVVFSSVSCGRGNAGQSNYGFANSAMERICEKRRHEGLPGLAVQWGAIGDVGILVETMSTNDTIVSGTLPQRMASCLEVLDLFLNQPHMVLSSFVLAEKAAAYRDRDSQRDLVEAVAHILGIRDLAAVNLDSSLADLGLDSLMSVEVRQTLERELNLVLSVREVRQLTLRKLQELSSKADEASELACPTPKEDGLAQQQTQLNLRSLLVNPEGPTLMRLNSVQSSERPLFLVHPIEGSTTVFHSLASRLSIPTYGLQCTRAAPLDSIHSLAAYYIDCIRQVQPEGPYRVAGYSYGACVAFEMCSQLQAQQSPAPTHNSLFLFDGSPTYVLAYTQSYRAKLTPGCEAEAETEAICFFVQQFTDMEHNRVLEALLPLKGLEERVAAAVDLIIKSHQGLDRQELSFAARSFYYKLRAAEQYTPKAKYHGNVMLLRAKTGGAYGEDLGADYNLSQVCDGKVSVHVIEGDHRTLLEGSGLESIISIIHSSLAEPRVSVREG

Turning to `O=C(/C=C/c1cccc([N+](=O)[O-])c1)NCCSCc1cccc(Cl)c1`, the half-maximal inhibitory concentration (IC50) was 7.25 µM (active) at Fatty acid synthase [1] and 11.7 µM (active) at Fatty acid synthase [3]. The CC50 in test [2] was 14.3 µM (active).

For the molecule `Cc1ccc2c(c1C)-c1c(ccc(C)c1C)C(=O)C2=O`, the AC50 at Paired box protein Pax-8 was 3.67 µM (active); in [4], 2.79 µM (active); in [5], 0.531 µM (active); in [6] it was 3.16 µM (active). In addition, the IC50 on Fatty acid synthase [1] was 5.23 µM (active); at Fatty acid synthase [3], 7.89 µM (active); in test [7] it was 8.67 µM (active).

`COc1ccc2nc(-c3ccc(F)cc3)sc2c1`: the AC50 is > 52 µM (inactive) in test [8], 2.35 µM (active) in [9], 2.55 µM (active) in [10] and > 52 µM (inactive) in test [11].

Consider `Cc1cc(O)cc2c(=O)c3ccccc3sc12`, for which the IC50 in test [12] was 3.64 µM (active); in [13], 8.54 µM (active); at Orexin receptor type 2 [14], 0.009 µM (active); in [15], > 49.8 µM (inactive); on Orexin receptor type 2 [16], > 88.8 µM (inactive); with CHO-K1, > 66.3 µM (inactive).

For `CN(Cc1cccs1)C(=O)Cn1cnc2cc([N+](=O)[O-])ccc2c1=O`, the IC50 on Fatty acid synthase [1] was 5.16 µM (active); on Fatty acid synthase [3], 7.81 µM (active).

On to `O=c1cc(CN2CC(O)Cc3ccc4ccccc4c32)nc2sccn12` (centres undefined), for which the IC50 in test [12] was 4.12 µM (active); in [13] it was 3.29 µM (active); on Orexin receptor type 2 [14], > 50 µM (inactive); in test [15], > 49.7 µM (inactive); at Orexin receptor type 2 [16] it was > 88.8 µM (inactive); with CHO-K1 it was > 66.2 µM (inactive).

On to `CCCCNC(=O)CCC(=O)NNc1nc2ccccc2c2nc(-c3ccccc3)nn12`, for which the IC50 in [12] is 2.69 µM (active); in [13], 7.27 µM (active); on Orexin receptor type 2 [14], > 50 µM (inactive); in test [15] it was > 49.8 µM (inactive); at Orexin receptor type 2 [16], > 88.8 µM (inactive); in the test with CHO-K1, > 66.2 µM (inactive).

Take `CCOC(=O)c1cc2c(=O)n3ccccc3nc2n(CC2CCCO2)/c1=N/C(=O)/C=C/c1ccccc1` (centres undefined): the figures for the IC50 at Fatty acid synthase [1] and on Fatty acid synthase [3] were 3.99 µM (active) and 2.71 µM (active), respectively. In addition, on Kallikrein-7, the EC50 is > 69.5 µM (inactive).

Regarding `Cc1csc(-c2coc3cc(O)cc(C)c3c2=O)n1`, the IC50 in test [12] was 2.54 µM (active); in [13], 10.4 µM (inactive); at Orexin receptor type 2 [14], > 50 µM (inactive); in test [15], > 49.8 µM (inactive); at Orexin receptor type 2 [16], > 88.8 µM (inactive); with CHO-K1, > 66.2 µM (inactive).

Turning to `CN(Cc1ccccc1)C(=O)c1[nH]cnc1C(=O)N[C@@H](Cc1ccccc1)C(=O)OC(C)(C)C`, the IC50 is 0.515 µM (active) in test [12]; 5.87 µM (active) in [13]; > 50 µM (inactive) on Orexin receptor type 2 [14]; > 49.8 µM (inactive) in test [15]; > 88.8 µM (inactive) on Orexin receptor type 2 [16]; > 66.2 µM (inactive) in the test with CHO-K1.
